Columns and labels:
Cathepsin B [1] = biological target: T1, Cathepsin B (Homo sapiens, UniProt P07858); assay: Reversibility with active site probe DCG-04 (labelling, SDS-PAGE, blot); type: binding; conditions: 0.1, 1, 10 and 50 µM inhibitor, 1 h, then 2 µM DCG-04
Source text: Second, the reversibility of 5-nitro-8-hydroxyquinoline was also studied with the active site probe DCG-04. DCG-04 is a derivative of an irreversible epoxysuccinic inhibitor of cysteine proteases E-64 with an additional biotin moiety which enables detection of covalently modified proteases with labelling intensity correlating with enzymatic activity (Greenbaum D, Medzihradszky KF, Burlingame A, Bogyo M: Epoxide electrophiles as activity-dependent cysteine protease profiling and discovery tools. Chem Biol 2000, 7: 569-81.). 1 µg of recombinant cathepsin B in 50 mM Tris, pH 5.5 containing 1 mM DTT, 5 mM MgCl2 and 250 mM sucrose was incubated with 0.1, 1, 10 in 50 µM 5-nitro-8-hydroxyquinoline (diluted from 10 mM DMSO stocks) for 1 h at room temperature. Samples were then labelled with 2 µM DCG-04 for an additional h at room temperature. After boiling in reducing sample buffer for 10 min samples were analyzed by 12.5 % SDS-PAGE and transferred to a nitrocellulose membrane. The latter was then blocked with 0.5 % Tween 20 in PBS overnight at 4 °C and incubated with 1 µg/ml streptavidin-horseradish peroxidase in 0.2 % Tween 20 in PBS for 1 h at room temperature. The membrane was washed five times with 0.2 % Tween 20 in PBS and the spots on the membrane were visualized with 0.5 mg/ml 3,3'-diaminobenzidine and 0.0005 % (v/v) H2O2 in 50 mM Tris, pH 7.5. […]

Cathepsin B [2] = biological target: T1, Cathepsin B; assay: Reversibility by mass spectrometry (ESI-MS of cathepsin B after incubation and dialysis); type: binding; conditions: equimolar inhibitor, 1 h room temperature, dialysis
Experimental: Third, reversibility of 5-nitro-8-hydroxyquinoline was also checked with mass spectrometry. Cathepsin B (4.4 µM) was activated in the activation buffer for 5 min at 37 °C. Afterwards, an equimolar amount of the inhibitor was added to the enzyme and incubated for 1 h at room temperature. The mixture was dialyzed against water five times using Microcon Centrifugal Filter Devices YM-10 to avoid salt interferences and to remove unbound molecules of the test compound. Samples were then prepared by adding an equal volume of acetonitrile containing 0.1 % formic acid and analyzed with ESI-MS on an AutoSpec Q instrument. As a positive control CA-074 was used.

MCF-10A neoT cells [3] = assay: MTS cytotoxicity assay; type: cell-based; conditions: 10 µM, 24 h incubation
Experimental: A MTS assay was used to assess the cytotoxic effect of 5-nitro-8-hydroxyquinoline on MCF-10A neoT cells. 5 × 10^4 cells in 100 µl of medium were added to a single well of a 96-microtiter plate to which a 100 µl of 5-nitro-8-hydroxyquinoline solution (twice the final concentration) was added. After 24 h incubation the cells were washed and the medium was replaced with 100 µl of fresh medium to which a 20 µl of MTS was added. After 2 h incubation the absorbance was measured at 490 nm. The experiment was performed in quadruplicates and DMSO was used as control.

MCF-10A neoT cells [4] = assay: Three-dimensional in vitro invasion model based on spheroids; type: cell-based; conditions: 10 µM, Matrigel
Experimental: The ability of 5-nitro-8-hydroxyquinoline to inhibit tumour cell invasion was also tested in a three-dimensional in vitro invasion model based on spheroids. Multicellular tumour spheroids were prepared according to hanging drop method (Kelm JM, Timmins NE, Brown CJ, Fussenegger M, Nielsen LK: Method for generation of homogeneous multicellular tumour spheroids applicable to a wide variety of cell types. Biotechnol Bioeng 2003, 83:173-80.). Drops (20 µl) of MCF-10A neoT cell suspension ([…]) were placed onto the lids of 10 cm dishes which were inverted over dishes containing 10 ml of PBS. Upon inversion of the tray the cells accumulated at the free liquid-air interface in this way forming spheroids after sufficient sedimentation time, in our case 6 days. Wells of a 24-well plate were filled with 400 µl of Matrigel (5mg/ml) containing the 5-nitro-8-hydroxyquinoline at the final concentration of 10 µM. After 15 min incubation at 37 °C 1 ml of medium with the test compound (10 µM) was placed on top of Matrigel. Spheroids were then carefully plated into the wells and incubated at 37 °C in a humidified atmosphere containing 5 % CO2. Images of spheroids were obtained using an Olympus IX 81 motorized inverted microscope and CellR software.

MCF-10A neoT cells [5] = assay: Extracellular DQ-collagen IV degradation, fluorescence intensity in medium; type: cell-based; conditions: Homo sapiens, MCF-10A-neoT, 3 h, DQ-collagen IV 5 µg/ml
Experimental: Two experiments were set to differentiate between inhibition of intracellular and extracellular DQ-collagen IV degradation. Inhibition of extracellular DQ-collagen IV degradation was observed by monitoring the fluorescence intensity of degraded DQ-collagen IV in the medium in which MCF-10A neoT cells were grown. 5 × 10^4 MCF-10A neoT cells were plated into wells of a 96-well black plate and were allowed to attach over night. Cells were then incubated with 100 µl PBS containing 5-nitro-8-hydroxyquinoline, CA-074 or CA-074Me (10 µM) and DQ-collagen IV (5 µg/ml) for 3 h. Afterwards, the 80 µl of PBS was transferred into the empty wells and the fluorescence intensity was measured at 495 nm ± 5 nm excitation and 515 nm ± 5 nm emission wavelengths on Tecan Safire^2™. The experiment was performed in 8 parallels and DMSO was used as a control.

MCF-10A neoT cells [6] = assay: Intracellular DQ-collagen IV degradation by flow cytometry; type: cell-based; conditions: 50 µM, shift in fluorescence intensity
Experimental: Inhibition of intracellular DQ-collagen IV degradation was observed by flow cytometry by a shift in fluorescence intensity. 5 × 10^4 MCF-10A neoT cells in complete medium were plated into the wells of a 24-well plate and allowed to attach over night. Afterwards, the medium was replaced with 500 µl of serum free medium with 5-nitro-8-hydroxyquinoline, CA-074 or CA-074Me (50 µM). After 2 h incubation the medium was again replaced with serum free medium containing inhibitors (50 µM) and DQ-collagen IV (5 µg/ml). DMSO was used as a control. For the experiment only viable cells were selected using propidium iodide. The measurements were performed on a FACS Calibur instrument (Beckton Dickinson, Inc.).

O=[N+]([O-])c1ccc(O)c2ncccc12 [Compound 1, 5-nitro-8-hydroxyquinoline]
intensity of spots (DCG-04 labelling) versus DMSO control (Cathepsin B [1]): did not differ significantly from the DMSO control | Molecular weight of cathepsin B after incubation with inhibitor (Cathepsin B [2]): did not alter | cytotoxic effect (cell viability, MTS) (MCF-10A neoT cells [3]): non-toxic | inhibition of tumour invasion in three-dimensional spheroid model (MCF-10A neoT cells [4]): completely abrogated the invasive activity at the edge of the spheroid | inhibition at 10 µM (MCF-10A neoT cells [5]): 35.3% | inhibition of intracellular DQ-collagen IV degradation (MCF-10A neoT cells [6]): significantly inhibits

— patent publication EP2353599A1, “8-hydroxyquinolines as inhibitors of cathepsin B” (University of Ljubljana, priority 2010, dated 2011)
